According to article PMC12172042, “Metabolic Activation versus Masked Prodrugs: Bisubstrate Mimic Inhibitors of CoaBC’s PPCS Activity in Mycobacterium tuberculosis and Staphylococcus aureus” (ACS Infectious Diseases, 2025):

Key:
SaCoaBC = target: T1, SaCoaBC (Staphylococcus aureus, UniProt Q2G268); test: coupled pyrophosphate assay with Morrison tight-binding fit; formed in situ from P-CJ and CTP; CD melting shift ~[…] °C; type: biochemical
T1 construct: gene coaBC

MtCoaBC = target: T2, MtCoaBC (Mycobacterium tuberculosis, UniProt P9WNZ1); test: coupled pyrophosphate assay with Morrison tight-binding fit; formed in situ from P-CJ and CTP; CD melting shift […] °C; type: biochemical
T2 construct: gene coaBC

[1] = system: CC(C)(COP(=O)(O)O)[C@@H](O)C(=O)NCCC(=O)O; test: purified protein; settings: CTP (MgCTP)

T2 sequence (P9WNZ1 whole entry): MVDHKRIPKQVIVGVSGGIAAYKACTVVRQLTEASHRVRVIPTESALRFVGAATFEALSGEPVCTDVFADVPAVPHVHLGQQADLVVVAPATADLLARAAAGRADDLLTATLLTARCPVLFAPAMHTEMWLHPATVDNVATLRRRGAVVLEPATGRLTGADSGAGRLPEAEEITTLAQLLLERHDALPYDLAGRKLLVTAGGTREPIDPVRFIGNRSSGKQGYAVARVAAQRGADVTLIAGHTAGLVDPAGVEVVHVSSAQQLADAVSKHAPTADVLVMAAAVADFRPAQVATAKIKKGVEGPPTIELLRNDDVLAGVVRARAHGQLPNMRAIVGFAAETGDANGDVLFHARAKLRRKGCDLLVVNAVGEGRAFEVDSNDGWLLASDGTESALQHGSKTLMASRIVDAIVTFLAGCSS
T1 sequence (Q2G268 entry or part of it): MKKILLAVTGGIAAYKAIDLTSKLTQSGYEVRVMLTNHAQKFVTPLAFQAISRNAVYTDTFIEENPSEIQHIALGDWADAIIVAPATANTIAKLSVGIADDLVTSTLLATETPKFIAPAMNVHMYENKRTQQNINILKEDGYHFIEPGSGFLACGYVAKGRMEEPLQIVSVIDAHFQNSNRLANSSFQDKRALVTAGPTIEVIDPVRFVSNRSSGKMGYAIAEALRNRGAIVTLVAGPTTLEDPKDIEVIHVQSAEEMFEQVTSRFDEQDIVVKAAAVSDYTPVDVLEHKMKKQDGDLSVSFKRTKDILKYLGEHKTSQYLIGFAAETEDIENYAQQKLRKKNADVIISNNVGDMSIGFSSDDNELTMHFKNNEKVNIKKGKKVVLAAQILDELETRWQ

Compound	Ki (SaCoaBC)	Ki (MtCoaBC)	Km [1]
CC(C)(COP(=O)(O)O)[C@@H](O)C(=O)N/C=C/C(=O)OP(=O)(O)OC[C@H]1O[C@@H](n2ccc(N)nc2=O)[C@H](O)[C@@H]1O [compound 11, P-CJ-CMP]	0.0323 µM	0.0587 µM	–
MtCoaBC (Mycobacterium tuberculosis H37Rv)	–	–	33.2 ± 4.2 µM
